Measured values taken from US20200346048A1, “METHOD AND KIT FOR HOME CONTROLLED OVARIAN STIMULATION FOR IN VITRO FERTILIZATION” (priority 2019, published 2020).
Where “and” joins values, the source holds several entries; their conditions need not be identical. Equal values may be shown once. Square brackets hold non-standard residues; d marks the D form. Peptide text beside a SMILES is read from it. d(hArg(Et2)) = CCN=C(NCC)NCCCC[C@@H](N)C(=O)O; hArg(Et2) = CCN=C(NCC)NCCCC[C@H](N)C(=O)O; dPhe(4-Cl) = N[C@H](Cc1ccc(Cl)cc1)C(=O)O; d2Nal = N[C@H](Cc1ccc2ccccc2c1)C(=O)O; d3Pal = N[C@H](Cc1cccnc1)C(=O)O

Assays:
[1] = system: Luteinizing hormone (LH) blood level; assay: Home controlled ovarian hyperstimulation method with vaginal elagolix (Example 2): LH blood level before and after medication; type: in vivo, female patients; settings: 50 mg elagolix tablet as vaginal suppository on days 9 and 11
Experimental: On day 9 of the menstrual cycle, the patient is directed to orally take 50 to 150 mg, preferably 100 mg, (one, two, or three 50 mg oral tablets) of clomiphene citrate and to either insert vaginally or take orally, depending on the patient's preference, a gonadotropin-releasing hormone (GnRH) antagonist such as elagolix (marketed as ORILISSA®), instead of the expensive injections of ganirelix acetate (GANIRELEX®) or cetrorelix acetate (marketed as CETROTIDE®) used routinely in conventional practices. A dose of 25 mg (⅛^th of a pill) up to 200 mg of elagolix (1 full pill), preferably 25 mg, will be used, with the dose being the same whether inserted vaginally or taken orally. Elagolix is a GnRH antagonist that is conventionally used in the treatment of pain associated with endometriosis in women, not for the treatment of infertility. By blocking the GnRH receptor, elagolix suppresses LH release by the pituitary gland and thus prevents LH surge. Ultimately, elagolix suppresses gonadal steroid production, thereby reducing circulating levels of sex hormones such as progesterone, estradiol, and testosterone. Elagolix is generally an oral medication (oral tablet), however in the present method, elagolix is a tablet taken mainly as a vaginal suppository, but may be taken orally based on the patient's preference. […]

[2] = system: Luteinizing hormone (LH) blood level; assay: GnRH antagonist protocol with ganirelix acetate injections (Example 1): LH blood level before and after medication; type: in vivo, female patients
Experimental: Five female patients were treated with a GnRH antagonist protocol requiring injections of medications. […]
Three patients, numbered 3 to 5, were injected with 75, 150 and 225 Units of FSH, respectively, on days 4 to 12 and one third a syringe of 150 mcg/0.5 mL of ganirelix acetate on days 11 to 13. Patient no. 3 received 50 mg of clomiphene citrate on days 4 to 12, and 2.5 mg of letrozole on days 4 to 8. Patient no. 4 received 100 mg of clomiphene citrate and 2.5 mg of letrozole on days 4 to 8, and 50 mg of clomiphene citrate on days 9 to 11. Patient no. 5 received no clomiphene citrate or letrozole. Luteinizing hormone (LH) blood level was 12.0, 18.0 and 14.6 mIU/mL, respectively, on day 10 and dropped to 4.9, 16.0 and 14.1 mIU/mL, respectively, on day 12. […]

SMILES	Luteinizing hormone (LH) blood level on day 13 [1] [mIU/mL]	Luteinizing hormone (LH) blood level on day 11 ([1]; clomiphene citrate 100 mg, letrozole 5 mg) [mIU/mL]	LH blood hormone level (mIU/mL) AFTER medication intake ([2]; Example 1, one line per patient (patients 1-5), after ganirelix injections, listed as Conventional Ganielex/Cetrotide Injectables)	LH blood hormone level (mIU/mL) BEFORE medication intake ([2]; Example 1, one line per patient (patients 1-5), baseline before ganirelix injections, with FSH and, except patient 5, clomiphene citrate/letrozole, listed as Conventional Ganielex/Cetrotide Injectables)	% Drop in blood LH hormone level ([2]; Example 1, one line per patient (patients 1-5), before vs after medication intake, listed as Conventional Ganielex/Cetrotide Injectables) [%]	Luteinizing hormone (LH) blood level on day 12 ([2]; patient no. 1, half a syringe of 150 mcg/0.5 mL ganirelix acetate on days 11 and 12) [mIU/mL]	Luteinizing hormone (LH) blood level on day 10 ([2]; patient no. 1, half a syringe of 150 mcg/0.5 mL ganirelix acetate on days 11 and 12, FSH 150 Units, clomiphene citrate 50 mg, letrozole 2.5 mg) [mIU/mL]	Luteinizing hormone (LH) blood level on day 13 ([2]; patient no. 2, half a syringe of 150 mcg/0.5 mL ganirelix acetate on days 11 to 13) [mIU/mL]	Luteinizing hormone (LH) blood level on day 11 ([2]; patient no. 2, half a syringe of 150 mcg/0.5 mL ganirelix acetate on days 11 to 13, FSH 75/150 Units, clomiphene citrate 50 mg, letrozole 2.5 mg) [mIU/mL]	Luteinizing hormone (LH) blood level on day 10 ([2]; patients no. 3, 4, 5 respectively, one third a syringe of 150 mcg/0.5 mL ganirelix acetate on days 11 to 13, FSH 75, 150, 225 Units)
COc1cccc(-c2c(C)n(Cc3c(F)cccc3C(F)(F)F)c(=O)n(C[C@H](NCCCC(=O)O)c3ccccc3)c2=O)c1F [Vaginal elagolix suppository, elagolix]	1.0	7.0	–	–	–	–	–	–	–	–
CCN=C(NCC)NCCCC[C@H](NC(=O)[C@H](CC(C)C)NC(=O)[C@@H](CCCCNC(=NCC)NCC)NC(=O)[C@H](Cc1ccc(O)cc1)NC(=O)[C@H](CO)NC(=O)[C@@H](Cc1cccnc1)NC(=O)[C@@H](Cc1ccc(Cl)cc1)NC(=O)[C@@H](Cc1ccc2ccccc2c1)NC(C)=O)C(=O)N1CCC[C@H]1C(=O)N[C@H](C)C(N)=O [Ganirelex, ganirelix acetate] (Ac-[d2Nal][dPhe(4-Cl)][d3Pal]SY[d(hArg(Et2))]L[hArg(Et2)]P[dA]-NH2)	–	–	2.0 mIU/mL and 6.3 mIU/mL and 4.9 mIU/mL and 16.0 mIU/mL and 14.1 mIU/mL	4.3 mIU/mL and 12.0 mIU/mL (2×) and 18.0 mIU/mL and 14.6 mIU/mL	3.4	2	4.3	6.3	12.0	12.0 mIU/mL and 18.0 mIU/mL and 14.6 mIU/mL
